pIC50: −log10 of the molar value.
Tests used:
Experiment in all cases: Inhibition Assay
Conditions in all cases: pH 8; 25 °C
[1] = target: Inosine-5'-monophosphate dehydrogenase (Streptococcus pyogenes, UniProt P0C0H6)
Description: (§1) Inhibition assay using inosine 5'-onophosphate dehydrogenase (IMPD).

[2] = target: T1, Inosine-5'-monophosphate dehydrogenase (Helicobacter pylori (strain G27), UniProt B5Z7J4)
T1 sequence (B5Z7J4 whole entry): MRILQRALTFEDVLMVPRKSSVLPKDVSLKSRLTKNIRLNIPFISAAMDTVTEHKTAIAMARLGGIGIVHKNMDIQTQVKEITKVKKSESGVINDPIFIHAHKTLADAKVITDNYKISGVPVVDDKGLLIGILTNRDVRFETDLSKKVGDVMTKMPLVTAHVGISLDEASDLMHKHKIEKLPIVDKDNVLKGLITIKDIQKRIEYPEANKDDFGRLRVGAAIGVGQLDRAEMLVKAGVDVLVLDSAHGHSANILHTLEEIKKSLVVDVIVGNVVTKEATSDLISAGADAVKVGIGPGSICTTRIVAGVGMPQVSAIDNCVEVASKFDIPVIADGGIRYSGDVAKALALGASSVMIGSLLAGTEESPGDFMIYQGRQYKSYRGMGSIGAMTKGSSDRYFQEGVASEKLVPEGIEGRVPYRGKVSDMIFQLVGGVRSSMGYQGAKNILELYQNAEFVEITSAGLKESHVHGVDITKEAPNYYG
Description: as §1

[3] = target: T2, Inosine-5'-monophosphate dehydrogenase (Borreliella burgdorferi (strain ATCC 35210 / DSM 4680 / CIP 102532 / B31), UniProt P49058)
T2 sequence (P49058 whole entry): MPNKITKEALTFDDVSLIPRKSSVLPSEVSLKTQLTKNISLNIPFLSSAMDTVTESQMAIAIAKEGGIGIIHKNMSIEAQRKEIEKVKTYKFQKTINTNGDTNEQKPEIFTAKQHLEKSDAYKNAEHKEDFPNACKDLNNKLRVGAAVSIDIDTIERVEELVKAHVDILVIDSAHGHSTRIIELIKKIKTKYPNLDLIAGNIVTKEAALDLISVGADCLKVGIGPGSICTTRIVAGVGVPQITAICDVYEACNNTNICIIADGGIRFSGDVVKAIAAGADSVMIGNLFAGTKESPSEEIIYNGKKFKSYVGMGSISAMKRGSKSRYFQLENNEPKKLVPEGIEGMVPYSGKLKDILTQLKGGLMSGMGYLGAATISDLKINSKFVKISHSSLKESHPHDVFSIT
Description: as §1

[4] = target: T3, Inosine-5'-monophosphate dehydrogenase (Cryptosporidium parvum, UniProt Q8T6T2)
T3 sequence (Q8T6T2 whole entry): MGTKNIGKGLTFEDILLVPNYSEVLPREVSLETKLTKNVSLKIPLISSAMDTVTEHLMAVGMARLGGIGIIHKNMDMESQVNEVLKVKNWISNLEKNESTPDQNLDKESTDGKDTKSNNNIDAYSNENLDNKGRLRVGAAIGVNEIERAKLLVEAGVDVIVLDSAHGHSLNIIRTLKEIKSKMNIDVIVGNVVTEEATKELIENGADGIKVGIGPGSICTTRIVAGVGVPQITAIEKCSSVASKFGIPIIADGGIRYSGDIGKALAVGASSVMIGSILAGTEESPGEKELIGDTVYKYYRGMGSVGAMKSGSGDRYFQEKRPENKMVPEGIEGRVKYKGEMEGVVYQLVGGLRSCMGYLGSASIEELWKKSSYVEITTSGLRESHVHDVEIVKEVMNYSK
Description: as §1

Chain of Inosine-5'-monophosphate dehydrogenase (Streptococcus pyogenes, UniProt P0C0H6) (P0C0H6 whole entry): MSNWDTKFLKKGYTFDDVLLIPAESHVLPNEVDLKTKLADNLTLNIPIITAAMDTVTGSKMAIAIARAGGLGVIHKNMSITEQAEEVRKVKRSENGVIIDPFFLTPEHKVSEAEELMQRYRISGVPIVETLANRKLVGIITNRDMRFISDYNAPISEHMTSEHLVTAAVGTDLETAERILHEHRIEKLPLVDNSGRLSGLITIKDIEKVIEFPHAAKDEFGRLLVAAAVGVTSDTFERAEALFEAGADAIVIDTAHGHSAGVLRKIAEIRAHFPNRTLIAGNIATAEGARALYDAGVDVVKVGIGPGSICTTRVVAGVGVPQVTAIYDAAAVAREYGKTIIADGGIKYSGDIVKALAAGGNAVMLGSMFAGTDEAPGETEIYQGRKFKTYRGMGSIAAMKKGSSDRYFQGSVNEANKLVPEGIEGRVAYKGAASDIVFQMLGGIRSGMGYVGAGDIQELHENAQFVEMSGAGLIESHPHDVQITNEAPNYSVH

| SMILES | pIC50 [1] | pIC50 [2] | pIC50 [3] | pIC50 [4] |
| --- | --- | --- | --- | --- |
| CC(Oc1ccccc1)C(=O)Nc1ccc(Cl)cc1 (centres undefined) | 4.02 | 5.66 | 5.85 | – |
| Nc1ccc(C(=O)OCc2nc3cc4ccccc4cc3[nH]2)cc1 [1H-naphtho[2,3-d]imidazol-2-ylmethyl 4-aminobenzoate, Compound G] | 6.26 | 6.52 | 6.66 | 7.00 |
| Nc1ccc(C(=O)OCCCc2nc3cc4ccccc4cc3[nH]2)cc1 [3-{1H-naphtho[2,3-d]imidazol-2-yl}propyl 4-aminobenzoate, Compound H] | 6.07 | 5.92 | 6.05 | 6.05 |
| COc1ccc(NC(=O)Cc2nn(C)c(=O)c3ccccc23)cc1 [N-(4-methoxyphenyl)-2-(3-methyl-4-oxo-3,4-dihydrophthalazin-1-yl)acetamide, Compound D] | 4.31 | 5.52 | 5.77 | 5.27 |
| COc1ccc(NC(=O)Cc2cccc3ccccc23)cc1 [N-(4-methoxyphenyl)-2-(naphthalen-1-yl)acetamide, Compound B] | 4.07 | 5.89 | 5.74 | 5.80 |
| COc1ccc(NC(=O)Cn2c(-c3cscn3)nc3ccccc32)cc1 [N-(4-methoxyphenyl)-2-[2-(1,3-thiazol-4-yl)-1H-1,3-benzodiazol-1-yl]acetamide, Compound C] | 4.15 | 6.22 | 6.22 | 5.92 |
| O=C(Cn1c(-c2ccccn2)nc2ccccc21)Nc1ccc2ccccc2c1 [N-(naphthalen-2-yl)-2-[2-(pyridin-2-yl)-1H-1,3-benzodiazol-1-yl]acetamide, Compound C91] | 8.27 | 8.96 | – | 8.10 |
| CCn1c(SCC(=O)Nc2ccc(OC)cc2)nc2ccsc2c1=O [l-4-oxo-3H,4H-thieno[3,2-d]pyrimidin-2-yl}sulfanyl)-N-(4-methoxyphenyl)acetamide, Compound F] | 4.89 | 5.96 | 6.10 | 5.85 |
| COC(=O)c1c(C)c(=O)[nH]c2ccccc12 [methyl 3-methyl-2-oxo-1,2-dihydroquinoline-4-carboxylate, Compound E] | 4.82 | 5.82 | 6.05 | 5.80 |
